# Assay results: patent US9932637B2, “Genetic polymorphisms associated with cardiovascular disorders and drug response, methods of detection and uses thereof” (CELERA CORPORATION, priority 2003, dated 2018)
# Several values for one entry are separate records, joined by “and”; a condition that tells them apart may be missing. Equal values may be shown once.
# Tested on: patients with prior myocardial infarction (CARE study)
# Experiment: CARE aligned analysis (prospective and case/control design, white males): association of genotypes with pravastatin efficacy (Tables 13, 15)
# Format: in vivo, human
# Conditions: for Pravastatin Patients (%) / Pravastatin Patients n/total / 2 Rare Alleles (%), Pravastatin Patients / 2 Rare Alleles n/total, Pravastatin Patients: F&NF MI; for Pravastatin Patients (%) / Pravastatin Patients n/total: WM; for 2 rare alleles n/total (%), pravastatin patients / Pravastatin vs placebo odds ratio, 0 rare alleles / Pravastatin vs placebo odds ratio, 1 rare allele / Pravastatin vs placebo odds ratio, 2 rare alleles: CARE, F MI/SD/NF MI
# Experimental: The data presented in Table 8 based on an association of genotypes with pravastatin efficacy of the CARE samples were further analyzed and presented in Table 13. The further analysis was performed to align the data obtained from the analysis of the CARE samples, which was a prospective study, to the analysis of the WOSCOP samples, which was a case/control study. Table 13 also presents an analysis of the association of genotypes with pravastatin efficacy in the WOSCOPs samples. Relative to the analysis performed on the data presented in Table 8, there are two significant differences to determine if the SNP influenced pravastatin efficacy. Data obtained from the CARE samples were separated by study design into two groups, those in the prospective study design group and those in the case/control study design group. The original care study contained 16 protocol defined cardiovascular disease defined endpoints and 150 other phenotypes. […] The control groups used to compare the data were also divided into two groups, the “all possible” control group and the “cleaner” control group. […] Because the participants in the WOSCOPs trial were all white males, only data obtained from white males in the CARE study were analysed. Data from the “all possible” and “cleaner” controls were compared to data obtained from the cases in the prospective study design while only data from “cleaner” controls were compared to cases in the case/control study design. The data from the case/control cohorts were analysed using conditional logistic regression (as opposed to logistic regression used for the original anaylsis).
# The anaylsis was refined as described for both Tables 13 and 14.
# [1] = HLA-DPB1 hCV8851085, 0 Rare Alleles, CARE Prospective, Cleaner controls
# [2] = HLA-DPB1 hCV8851085, 1 Rare Allele, CARE Case/Control, All Possible controls
# [3] = HLA-DPB1 hCV8851085, 1 Rare Allele, CARE Case/Control, Cleaner controls
# [4] = HLA-DPB1 hCV8851085, 1 Rare Allele, CARE Prospective, All Possible controls
# [5] = HLA-DPB1 hCV8851085, 1 Rare Allele, CARE Prospective, Cleaner controls
# [6] = HLA-DPB1 hCV8851085, Case/Control
# [7] = HLA-DPB1 hCV8851085, Prospective
# [8] = HLA-DPB1 hCV25651174, Case/Control
# [9] = HLA-DPB1 hCV25651174, Prospective
# [10] = HLA-DQB1 hCV9494470, 0 Rare Alleles, CARE Case/Control, All Possible controls
# [11] = HLA-DQB1 hCV9494470, 0 Rare Alleles, CARE Case/Control, Cleaner controls
# [12] = HLA-DQB1 hCV9494470, 0 Rare Alleles, CARE Prospective, All Possible controls
# [13] = HLA-DQB1 hCV9494470, 0 Rare Alleles, CARE Prospective, Cleaner controls
# [14] = HLA-DQB1 hCV9494470, 1 Rare Allele, CARE Case/Control, All Possible controls
# [15] = HLA-DQB1 hCV9494470, 1 Rare Allele, CARE Case/Control, Cleaner controls
# [16] = HLA-DQB1 hCV9494470, 1 Rare Allele, CARE Prospective, All Possible controls
# [17] = HLA-DQB1 hCV9494470, 1 Rare Allele, CARE Prospective, Cleaner controls
# [18] = HLA-DQB1 hCV9494470, Case/Control
# [19] = HLA-DQB1 hCV9494470, Prospective
# [20] = IL1RN hCV8737990, 0 Rare Alleles, CARE Case/Control, Cleaner controls
# [21] = IL1RN hCV8737990, 0 Rare Alleles, CARE Prospective, All Possible controls
# [22] = IL1RN hCV8737990, 0 Rare Alleles, CARE Prospective, Cleaner controls
# [23] = IL1RN hCV8737990, 1 Rare Allele, CARE Case/Control, Cleaner controls
# [24] = IL1RN hCV8737990, 1 Rare Allele, CARE Prospective, All Possible controls
# [25] = IL1RN hCV8737990, 1 Rare Allele, CARE Prospective, Cleaner controls
structure (smiles),measurement,setting,value
CC[C@H](C)C(=O)O[C@H]1C[C@H](O)C=C2C=C[C@H](C)[C@H](CC[C@@H](O)C[C@@H](O)CC(=O)O)[C@H]21 [pravastatin],Pravastatin Patients (%),[1],(14.1%)
same,Pravastatin Patients n/total,[1],74/523
same,Pravastatin Patients (%),[2],(10.3%)
same,Pravastatin Patients n/total,[2],44/426
same,Pravastatin Patients (%),[3],(15.1%)
same,Pravastatin Patients n/total,[3],44/292
same,Pravastatin Patients (%),[4],(10.2%)
same,Pravastatin Patients n/total,[4],44/433
same,Pravastatin Patients (%),[5],(14.9%)
same,Pravastatin Patients n/total,[5],44/295
same,"2 Rare Alleles (%), Pravastatin Patients","HLA-DPB1 hCV8851085, CARE Case/Control",(25.7%)
same,"2 rare alleles n/total (%), pravastatin patients",[6],(22.9%)
same,"Pravastatin vs placebo odds ratio, 0 rare alleles",[6],0.57
same,"Pravastatin vs placebo odds ratio, 1 rare allele",[6],0.87
same,"Pravastatin vs placebo odds ratio, 2 rare alleles",[6],4.69
same,"2 rare alleles n/total (%), pravastatin patients",[7],(22.9%)
same,"Pravastatin vs placebo odds ratio, 0 rare alleles",[7],0.58
same,"Pravastatin vs placebo odds ratio, 1 rare allele",[7],0.85
same,"Pravastatin vs placebo odds ratio, 2 rare alleles",[7],4.15
same,"2 Rare Alleles n/total, Pravastatin Patients","HLA-DPB1 hCV25651174, CARE Case/Control",17/109
same,"2 Rare Alleles n/total, Pravastatin Patients","HLA-DPB1 hCV25651174, CARE Prospective",17/110 and 17/77
same,"Pravastatin vs placebo odds ratio, 0 rare alleles",[8],0.59 and 0.51
same,"Pravastatin vs placebo odds ratio, 1 rare allele",[8],0.84 and 0.75
same,"Pravastatin vs placebo odds ratio, 2 rare alleles",[8],4.39 and 4.91
same,"Pravastatin vs placebo odds ratio, 0 rare alleles",[9],0.59 and 0.52
same,"Pravastatin vs placebo odds ratio, 1 rare allele",[9],0.84 and 0.72
same,"Pravastatin vs placebo odds ratio, 2 rare alleles",[9],4.29 and 4.60
same,Pravastatin Patients (%),[10],(11.1%)
same,Pravastatin Patients n/total,[10],92/826
same,Pravastatin Patients (%),[11],(16.1%)
same,Pravastatin Patients n/total,[11],92/572
same,Pravastatin Patients (%),[12],(11.0%)
same,Pravastatin Patients n/total,[12],92/840
same,Pravastatin Patients (%),[13],(15.8%)
same,Pravastatin Patients n/total,[13],92/583
same,Pravastatin Patients (%),[14],(7.9%)
same,Pravastatin Patients n/total,[14],28/353
same,Pravastatin Patients (%),[15],(11.5%)
same,Pravastatin Patients n/total,[15],28/244
same,Pravastatin Patients (%),[16],(7.8%)
same,Pravastatin Patients n/total,[16],28/361
same,Pravastatin Patients (%),[17],(11.3%)
same,Pravastatin Patients n/total,[17],28/247
same,"Pravastatin vs placebo odds ratio, 0 rare alleles",[18],0.99 and 0.90
same,"Pravastatin vs placebo odds ratio, 1 rare allele",[18],0.40 and 0.36
same,"Pravastatin vs placebo odds ratio, 2 rare alleles",[18],2.00 and 2.22
same,"Pravastatin vs placebo odds ratio, 0 rare alleles",[19],0.99 and 0.87
same,"Pravastatin vs placebo odds ratio, 1 rare allele",[19],0.42 and 0.38
same,"Pravastatin vs placebo odds ratio, 2 rare alleles",[19],2.06 and 2.16
same,Pravastatin Patients (%),[20],(14.9%)
same,Pravastatin Patients n/total,[20],66/444
same,Pravastatin Patients (%),[21],(10.3%)
same,Pravastatin Patients n/total,[21],66/642
same,Pravastatin Patients (%),[22],(14.6%)
same,Pravastatin Patients n/total,[22],66/453
same,Pravastatin Patients (%),[23],(13.0%)
same,Pravastatin Patients n/total,[23],43/332
same,Pravastatin Patients (%),[24],(8.7%)
same,Pravastatin Patients n/total,[24],43/496
same,Pravastatin Patients (%),[25],(12.8%)
same,Pravastatin Patients n/total,[25],43/336
same,"2 Rare Alleles (%), Pravastatin Patients","IL1RN hCV8737990, CARE Case/Control",(27.4%)
same,"2 rare alleles n/total (%), pravastatin patients","IL1RN hCV8737990, Case/Control",(21.1%)
same,"Pravastatin vs placebo odds ratio, 0 rare alleles","IL1RN hCV8737990, Case/Control",0.77
same,"Pravastatin vs placebo odds ratio, 1 rare allele","IL1RN hCV8737990, Case/Control",0.50
same,"Pravastatin vs placebo odds ratio, 2 rare alleles","IL1RN hCV8737990, Case/Control",1.97
same,"2 rare alleles n/total (%), pravastatin patients","IL1RN hCV8737990, Prospective",(20.7%)
same,"Pravastatin vs placebo odds ratio, 0 rare alleles","IL1RN hCV8737990, Prospective",0.80
same,"Pravastatin vs placebo odds ratio, 1 rare allele","IL1RN hCV8737990, Prospective",0.46
same,"Pravastatin vs placebo odds ratio, 2 rare alleles","IL1RN hCV8737990, Prospective",1.92
same,"Pravastatin vs placebo odds ratio, 0 rare alleles","IL4R hCV2769554, Case/Control",0.58 and 0.57
